Results published in US6608082B1, “Treatment of erectile dysfunction using isoquinoline compound melanocortin receptor ligands” (Lion Bioscience AG, priority 1998, dated 2003).
Like-named read-outs stand apart in the source and are kept apart here.

Experiments:
[1] = biological target: T1, MCR-1 (Homo sapiens, UniProt Q01726); assay: Melanocortin receptor binding assay, competition with 125I-HP 467, HEK 293 cells expressing hMCR-1; settings: read-out: MC-1 IC50
T1 construct: expressed in transfected cells; host or cells: HEK 293
T1 sequence (Q01726 whole entry): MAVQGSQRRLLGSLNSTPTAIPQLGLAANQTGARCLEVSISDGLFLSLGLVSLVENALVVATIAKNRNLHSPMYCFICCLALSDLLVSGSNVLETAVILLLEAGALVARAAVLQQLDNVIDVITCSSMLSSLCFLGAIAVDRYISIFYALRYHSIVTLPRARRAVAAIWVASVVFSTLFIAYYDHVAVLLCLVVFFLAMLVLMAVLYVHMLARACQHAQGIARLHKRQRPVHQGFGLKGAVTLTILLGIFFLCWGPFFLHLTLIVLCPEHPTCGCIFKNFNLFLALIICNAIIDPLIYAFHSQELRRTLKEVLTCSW
Method in brief: (§1)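 Test compounds compete on intact HEK 293 cells carrying hMCR-1 (2×10^4 per tube) or hMCR-4 (4×10^3 per tube), suspended in PBS, 10% calf serum, 1 mM CaCl2.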

[2] = biological target: T2, MCR-4 (Homo sapiens, UniProt P32245); assay: Melanocortin receptor binding assay, competition with 125I-HP 467, HEK 293 cells expressing hMCR-4; settings: for IC50: read-out: MC-4 IC50
T2 construct: expressed in transfected cells; host or cells: HEK 293
T2 sequence (P32245 whole entry): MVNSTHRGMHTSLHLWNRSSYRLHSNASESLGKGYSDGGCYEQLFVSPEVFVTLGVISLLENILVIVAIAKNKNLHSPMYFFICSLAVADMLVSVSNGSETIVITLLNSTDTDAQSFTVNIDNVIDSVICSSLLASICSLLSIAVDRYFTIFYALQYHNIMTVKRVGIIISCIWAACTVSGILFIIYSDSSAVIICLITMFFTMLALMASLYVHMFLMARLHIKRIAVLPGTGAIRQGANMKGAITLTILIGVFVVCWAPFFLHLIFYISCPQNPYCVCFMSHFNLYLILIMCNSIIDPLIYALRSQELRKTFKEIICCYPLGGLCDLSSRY
Method in brief: as §1

[3] = TRG 2406 and TRG 2407 libraries, inhibition of binding of 125I-HP 467
[4] = TRG 2408 and TRG 2409 libraries, inhibition of 125I-HP 467 binding

Row | Structure (SMILES) | IC50 [1, 3] | IC50 [2, 3] | MC-4 IC50 [2, 3] | IC50 [1, 4] | IC50 [2, 4]
1 | CNC(CN)CCCCN1Cc2ccccc2C(CNCc2ccccc2)C1c1ccc(Cl)cc1Cl (stereo not drawn) [TRG 2407-10] | 4.13 µM | 3.85 µM |  |  | 
2 | CNC(CN)CCCCN1Cc2ccccc2C(CN(C)Cc2ccccc2)C1c1ccc(Cl)cc1Cl (stereo not drawn) [TRG 2407-11] | 5.31 µM | 6.17 µM |  |  | 
3 | CNC(CN)CCCCN1Cc2ccccc2C(CNCc2ccccc2Cl)C1c1ccc(Cl)cc1Cl (stereo not drawn) [TRG 2407-12] | 2.7 µM | 3.23 µM |  |  | 
4 | CNC(CN)CCCCN1Cc2ccccc2C(CNCc2ccccc2C(F)(F)F)C1c1ccc(Cl)cc1Cl (stereo not drawn) [TRG 2407-13] | 8.5 µM | 9.25 µM |  |  | 
5 | CCOc1ccccc1CNCC1c2ccccc2CN(CCCCC(CN)NC)C1c1ccc(Cl)cc1Cl (stereo not drawn) [TRG 2407-15] | 1.2 µM | 0.78 µM |  |  | 
6 | CNC(CN)CCCCN1Cc2ccccc2C(CNCc2cccc(OC)c2)C1c1ccc(Cl)cc1Cl (stereo not drawn) [TRG 2407-16] | 5.83 µM | 1.81 µM |  |  | 
7 | CNC(CN)CCCCN1Cc2ccccc2C(CNCc2cccc(C(F)(F)F)c2)C1c1ccc(Cl)cc1Cl (stereo not drawn) [TRG 2407-17] | 10.1 µM | 9.22 µM |  |  | 
8 | CNC(CN)CCCCN1Cc2ccccc2C(CNCc2ccc(Cl)cc2)C1c1ccc(Cl)cc1Cl (stereo not drawn) [TRG 2407-18] | 3.31 µM | 2.83 µM |  |  | 
9 | CNC(CN)CCCCN1Cc2ccccc2C(CNCc2ccc(OC)cc2)C1c1ccc(Cl)cc1Cl (stereo not drawn) [TRG 2407-19] | 2.29 µM | 2.04 µM |  |  | 
10 | CNC(CN)CCCCN1Cc2ccccc2C(CNCc2ccc(C(F)(F)F)cc2)C1c1ccc(Cl)cc1Cl (stereo not drawn) [TRG 2407-20] | 3.78 µM | 3.49 µM |  |  | 
11 | CNC(CN)CCCCN1Cc2ccccc2C(CNCCc2ccccc2)C1c1ccc(Cl)cc1Cl (stereo not drawn) [TRG 2407-21] | 1.03 µM | 0.36 µM |  |  | 
12 | CNC(CN)CCCCN1Cc2ccccc2C(CNCCc2ccc(OC)cc2)C1c1ccc(Cl)cc1Cl (stereo not drawn) [TRG 2407-25] | 1.47 µM | 0.62 µM |  |  | 
13 | CNC(CN)CCCCN1Cc2ccccc2C(CNCCCc2ccccc2)C1c1ccc(Cl)cc1Cl (stereo not drawn) [TRG 2407-26] | 0.7 µM | 0.83 µM |  |  | 
14 | CNC(CN)CCCCN1Cc2ccccc2C(CNC2CCCC2)C1c1ccc(Cl)cc1Cl (stereo not drawn) [TRG 2407-27] | 0.57 µM | 0.53 µM |  |  | 
15 | CNC(CN)CCCCN1Cc2ccccc2C(CNC(C)C)C1c1ccc(-c2ccccc2)cc1 (stereo not drawn) [TRG 2407-28] | 0.31 µM | 3.6 µM |  |  | 
16 | CNC(CN)CCCCN1Cc2ccccc2C(CNC2CCCCCC2)C1c1ccc(Cl)cc1Cl (stereo not drawn) [TRG 2407-29] | 0.64 µM | 0.77 µM |  |  | 
17 | CNC(CN)CCCCN1Cc2ccccc2C(CN(C)C2CCCCC2)C1c1ccc(Cl)cc1Cl (stereo not drawn) [TRG 2407-30] | 3.15 µM | 2.1 µM |  |  | 
18 | CNC(CN)CCCCN1Cc2ccccc2C(CN2CCCCC2)C1c1ccc(Cl)cc1Cl (stereo not drawn) [TRG 2407-32] | 3.29 µM | 2.14 µM |  |  | 
19 | CNC(CN)CCCCN1Cc2ccccc2C(CN2CCOCC2)C1c1ccc(Cl)cc1Cl (stereo not drawn) [TRG 2407-33] | 6.9 µM | 6.02 µM |  |  | 
20 | CCN(CC)CC1c2ccccc2CN(CCCCC(CN)NC)C1c1ccc(Cl)cc1Cl (stereo not drawn) [TRG 2407-35] | 6.52 µM | 3.41 µM |  |  | 
21 | C=CCNCC1c2ccccc2CN(CCCCC(CN)NC)C1c1ccc(Cl)cc1Cl (stereo not drawn) [TRG 2407-36] | 0.43 µM | 0.46 µM |  |  | 

Row | Structure (SMILES) | IC50 [1, 3] | IC50 [2, 3] | MC-4 IC50 [2, 3] | IC50 [1, 4] | IC50 [2, 4]
22 | CNC(CN)CCCCN1Cc2ccccc2C(CNC(C)C)C1c1ccc(Cl)cc1Cl (stereo not drawn) [TRG 2407-37] | 0.91 µM | 0.54 µM |  |  | 
23 | CNC(CN)CCCCN1Cc2ccccc2C(CO)C1c1ccc(Cl)cc1Cl (stereo not drawn) [TRG 2407-40] | 4.74 µM | 4.94 µM |  |  | 
24 | CCNc1ccc(C2C(CNc3ccccc3)c3ccccc3CN2CCCCC(CN)NC)cc1 (stereo not drawn) [TRG 2407-41] | 5.87 µM | 17 µM |  |  | 
25 | CCNc1ccc(C2C(CN(C)c3ccccc3)c3ccccc3CN2CCCCC(CN)NC)cc1 (stereo not drawn) [TRG 2407-42] | 4.23 µM | 7.9 µM |  |  | 
26 | CCNc1ccc(C2C(CNc3ccccc3Cl)c3ccccc3CN2CCCCC(CN)NC)cc1 (stereo not drawn) [TRG 2407-43] | 7.07 µM | 11.2 µM |  |  | 
27 | CCNc1ccc(C2C(CNc3ccccc3OC)c3ccccc3CN2CCCCC(CN)NC)cc1 (stereo not drawn) [TRG 2407-44] | 1.15 µM | 10.4 µM |  |  | 
28 | CCNc1ccc(C2C(CNc3cccc(Cl)c3)c3ccccc3CN2CCCCC(CN)NC)cc1 (stereo not drawn) [TRG 2407-45] | 7.91 µM | 11 µM |  |  | 
29 | CCNc1ccc(C2C(CNc3cccc(OCC)c3)c3ccccc3CN2CCCCC(CN)NC)cc1 (stereo not drawn) [TRG 2407-46] | 1.63 µM | 16.4 µM |  |  | 
30 | CCNc1ccc(C2C(CNc3ccc(Cl)cc3)c3ccccc3CN2CCCCC(CN)NC)cc1 (stereo not drawn) [TRG 2407-48] | 4.48 µM | 10.8 µM |  |  | 
31 | CCNc1ccc(C2C(CNc3ccc(OC)cc3)c3ccccc3CN2CCCCC(CN)NC)cc1 (stereo not drawn) [TRG 2407-49] | 2.36 µM |  | no fit |  | 
32 | CCNc1ccc(C2C(CNCc3ccccc3)c3ccccc3CN2CCCCC(CN)NC)cc1 (stereo not drawn) [TRG 2407-50] | 0.35 µM | 9.1 µM |  |  | 
33 | CCNc1ccc(C2C(CN(C)Cc3ccccc3)c3ccccc3CN2CCCCC(CN)NC)cc1 (stereo not drawn) [TRG 2407-51] | 2.16 µM | 13.5 µM |  |  | 
34 | CCNc1ccc(C2C(CNCc3ccccc3Cl)c3ccccc3CN2CCCCC(CN)NC)cc1 (stereo not drawn) [TRG 2407-52] | 0.44 µM | 1.56 µM |  |  | 
35 | CCNc1ccc(C2C(CNCc3ccccc3C(F)(F)F)c3ccccc3CN2CCCCC(CN)NC)cc1 (stereo not drawn) [TRG 2407-53] | 1.27 µM | 0.79 µM |  |  | 
36 | CCNc1ccc(C2C(CNCc3ccccc3OCC)c3ccccc3CN2CCCCC(CN)NC)cc1 (stereo not drawn) [TRG 2407-55] | 0.19 µM | 14.9 µM |  |  | 
37 | CCNc1ccc(C2C(CNC3CCCCC3)c3ccccc3CN2CCCCC(N)CN)cc1 (stereo not drawn) [TRG 2408-5] |  |  |  | 1.66 µM | 31.8 µM
38 | CCNc1ccc(C2C(CNC3CCCCC3)c3ccccc3CN2CCCC[C@@H](CN)NCCc2ccccc2)cc1 (stereo partly drawn) [TRG 2408-6] |  |  |  | 0.61 µM | 7.16 µM
39 | CCNc1ccc(C2C(CNC3CCCCC3)c3ccccc3CN2CCCCC(CN)NCCNC)cc1 (stereo not drawn) [TRG 2408-8] |  |  |  | 2.31 µM | 43.3 µM
40 | NCC(N)CCCCN1Cc2ccccc2C(CNC2CCCCC2)C1c1ccc(Cl)cc1Cl (stereo not drawn) [TRG 2408-13] |  |  |  | 1.72 µM | 1.58 µM
41 | NCC(CCCCN1Cc2ccccc2C(CNC2CCCCC2)C1c1ccc(Cl)cc1Cl)NCCc1ccccc1 (stereo not drawn) [TRG 2408-14] |  |  |  | 2.11 µM | 5.52 µM
42 | NCCNC(CN)CCCCN1Cc2ccccc2C(CNC2CCCCC2)C1c1ccc(Cl)cc1Cl (stereo not drawn) [TRG 2408-15] |  |  |  | 0.76 µM | 6.3 µM

Row | Structure (SMILES) | IC50 [1, 3] | IC50 [2, 3] | MC-4 IC50 [2, 3] | IC50 [1, 4] | IC50 [2, 4]
43 | CNCCNC(CN)CCCCN1Cc2ccccc2C(CNC2CCCCC2)C1c1ccc(Cl)cc1Cl (stereo not drawn) [TRG 2408-16] |  |  |  | 1.79 µM | 6.11 µM
44 | NCC(N)CCCCN1Cc2ccccc2C(CNC2CCCCC2)C1c1ccc(-c2ccccc2)cc1 (stereo not drawn) [TRG 2408-21] |  |  |  | 1.73 µM | 17.4 µM
45 | NCC(CCCCN1Cc2ccccc2C(CNC2CCCCC2)C1c1ccc(-c2ccccc2)cc1)NCCc1ccccc1 (stereo not drawn) [TRG 2408-22] |  |  |  | 2.77 µM | 11.4 µM
46 | NCCNC(CN)CCCCN1Cc2ccccc2C(CNC2CCCCC2)C1c1ccc(-c2ccccc2)cc1 (stereo not drawn) [TRG 2408-23] |  |  |  | 0.82 µM | 20.5 µM
47 | CCNc1ccc(C2C(CNC3CCCCC3)c3ccccc3CN2CCCCC(CN)NCCc2ccccc2)cc1 (stereo not drawn) [TRG 2408-32] |  |  |  | 1.15 µM | 9.44 µM
48 | CCNc1ccc(C2C(CNC3CCCCC3)c3ccccc3CN2CCCCC(CN)NCCN)cc1 (stereo not drawn) [TRG 2408-33] |  |  |  | 1.06 µM | 38.7 µM
49 | CCNc1ccc(C2C(CNC3CCCCC3)c3ccccc3CN2CCCCC(CN)NCCNC)cc1 (stereo not drawn) [TRG 2408-34] |  |  |  | 2.14 µM | 33.6 µM
50 | CN[C@@H](CN)CCCCN1Cc2ccccc2C(CNC2CCCCC2)C1c1ccc(Cl)cc1Cl (stereo partly drawn) [TRG 2408-40] |  |  |  | 2.43 µM | 8.28 µM
51 | NC[C@H](N)CCCCN1Cc2ccccc2C(CNC2CCCCC2)C1c1ccc(Cl)cc1Cl (stereo partly drawn) [TRG 2408-41] |  |  |  | 1.03 µM | 3.88 µM
52 | NC[C@@H](CCCCN1Cc2ccccc2C(CNC2CCCCC2)C1c1ccc(Cl)cc1Cl)NCCc1ccccc1 (stereo partly drawn) [TRG 2408-42] |  |  |  | 1.93 µM | 4.24 µM
53 | NCCNC(CN)CCCCN1Cc2ccccc2C(CNC2CCCCC2)C1c1ccc(Cl)cc1Cl (stereo not drawn) [TRG 2408-43] |  |  |  | 1.63 µM | 7.49 µM
54 | CNCCNC(CN)CCCCN1Cc2ccccc2C(CNC2CCCCC2)C1c1ccc(Cl)cc1Cl (stereo not drawn) [TRG 2408-44] |  |  |  | 1.27 µM | 5.06 µM
55 | CNC(CN)CCCCN1Cc2ccccc2C(CNC2CCCCC2)C1c1ccc(-c2ccccc2)cc1 (stereo not drawn) [TRG 2408-50] |  |  |  | 1.55 µM | 13.3 µM
56 | NC[C@H](N)CCCCN1Cc2ccccc2C(CNC2CCCCC2)C1c1ccc(-c2ccccc2)cc1 (stereo partly drawn) [TRG 2408-51] |  |  |  | 3.19 µM | 29.3 µM
57 | NCC(CCCCN1Cc2ccccc2C(CNC2CCCCC2)C1c1ccc(-c2ccccc2)cc1)NCCc1ccccc1 (stereo not drawn) [TRG 2408-52] |  |  |  | 3.69 µM | 12.3 µM
58 | NCCNC(CN)CCCCN1Cc2ccccc2C(CNC2CCCCC2)C1c1ccc(-c2ccccc2)cc1 (stereo not drawn) [TRG 2408-53] |  |  |  | 1 µM | 14.8 µM
59 | CNCCN[C@@H](CN)CCCCN1Cc2ccccc2C(CNC2CCCCC2)C1c1ccc(-c2ccccc2)cc1 (stereo partly drawn) [TRG 2408-54] |  |  |  | 0.61 µM | 26.8 µM
60 | CCNc1ccc(C2C(CNC3CCCCC3)c3ccccc3CN2CCCC(CN)NC)cc1 (stereo not drawn) [TRG 2408-60] |  |  |  | 0.69 µM | 20.7 µM
61 | CCNc1ccc(C2C(CNC3CCCCC3)c3ccccc3CN2CCCC(N)CN)cc1 (stereo not drawn) [TRG 2408-61] |  |  |  | 0.69 µM | 35.2 µM
62 | CCNc1ccc(C2C(CNC3CCCCC3)c3ccccc3CN2CCCC(CN)NCCN)cc1 (stereo not drawn) [TRG 2408-63] |  |  |  | 0.69 µM | 18.7 µM
63 | CCNc1ccc(C2C(CNC3CCCCC3)c3ccccc3CN2CCCC(CN)NCCNC)cc1 (stereo not drawn) [TRG 2408-64] |  |  |  | 2.67 µM | 25 µM
